Measurements published in patent US7977481B2, “Pyrimidinyl-thiophene kinase modulators” (SGX Pharmaceuticals, Inc., priority 2005, dated 2011).

How the values were obtained:
JAK2 KD kinase = biological target: T1, JAK2 KD kinase (Homo sapiens, UniProt O60674); assay: JAK2 Luminescence-Based ATP Depletion Enzyme Assay (JAK2-WT); format: biochemical; details: 10 μM ATP
T1 construct: JAK2 KD (kinase domain); inferred from Ni-NTA capture and imidazole elution; made in house; host or cells: Sf9 insect cells
Experimental: (§1) JAK2 Luminescence-Based ATP Depletion Enzyme Assay
(§2) Materials: JAK3tide peptide substrate=GGEEEEYFELVKKKK (Biopeptide, San Diego, Calif.), ATP (Sigma Cat#A-3377, FW=551), HEPES buffer, pH 7.6, 10% Brij 35 (Calbiochem Cat#203728), MgCl2, Staurosporine (Streptomyces sp. Sigma Cat#85660-1MG), white Corning (Costar) 384-well flat bottom plate (VWR Cat#29444-088), JAK2 KD (kinase domain) or JAK2 JH1JH2 V617F kinase (see below), Kinase-Glo™ (Promega Cat#V6712).
(§3) Stock Solutions: 5 mM JAK3tide peptide (9.86 mg/ml in 100 mM HEPES, pH 7.6), stored at −20° C.; 100 mM HEPES buffer, pH 7.6, 10% Brij 35; 10 mM ATP (5.51 mg/ml in 100 mM HEPES, pH 7.6) stored at −20° C. (diluted 50 μl into total of 10 ml 100 mM HEPES, pH 7.6, daily=50 μM ATP working stock); 100 mM MgCl2; 200 μM Staurosporine, 2× Kinase-Glo™ reagent (made fresh or stored at −20° C.).
(§4) Standard Assay Conditions for 384-well format (20 μl kinase reaction, 40 μl detection reaction): 10 mM MgCl2; 0.1 mM JAK3tide peptide (or, 0.5 mM JAK3tide peptide for JAK2 JH1JH2 V617F assay); 1 μl test compound (in 100% DMSO); 0.4 μg/ml JAK2 KD kinase or 12 μg/ml JAK2 JH1JH2 V617F kinase; 10 μM ATP; 100 mM HEPES+0.01% Brij, pH 7.6. Positive controls contained 5% DMSO with no test compound. Negative controls contained 10 μM staurosporine. The kinase reactions were initiated at time t=0 by the addition of ATP. Kinase reactions were incubated at 21-23° C. for 30 min, after which 20 μl of Kinase-Glo™ reagent were added to each well to quench the kinase reaction and initiate the luminescence reaction. After a 20 min incubation at 21-23° C., the luminescence was detected in a plate-reading luminometer (Tecan Ultra Evolution).
(§5) The pellet of Sf9 insect cells produced from a 6 L expression of Jak2 was resuspended in a buffer containing 50 mM Tris-HCl pH 8.5, 250 mM NaCl, 5% Glycerol, 0.2% β-octylglucoside, 5 mM β-mercaptoethanol (or with ligand added to the buffer eg. 5 mM ATP and 10 mM MgCl2; 0.05 mM compound of the invention) in a volume of approximately 40 mL per 1 L of original culture. One tablet of Roche Complete, EDTA-free protease inhibitor cocktail (Cat. #1873580) was added per 1 L of original culture. The suspension was then stirred for 1 hour at 4° C. Debris was removed by centrifugation for 30 minutes at 39,800 g at 4° C. The supernatant was decanted into a 500 mL beaker and 10 mL of 50% Qiagen Ni-NTA Agarose (Cat. #30250) pre-equilibrated in 50 mM Tris-HCl pH 8.5, 250 mM NaCl, 5% Glycerol, 0.2% β-octylglucoside, 5 mM β-mercaptoethanol was added and stirred for 30 minutes at 4° C. The sample was poured through a drip column at 4° C. and washed with 10 column volumes (CV) of 50 mM Tris-HCl pH 8.5, 250 mM NaCl, 5% Glycerol, 0.2% β-octylglucoside, 5 mM β-mercaptoethanol. The protein was eluted in 5 mL fractions using 5 CV of the same buffer containing 250-500 mM Imidazole. Fractions were pooled by SDS-PAGE analysis and the protein concentration determined by a Bradford assay. 5 mM TCEP was added to the pool and the protein sample was concentrated to ˜8 mL by centrifugation in an Amicon Ultra-15 10,000 Da MWCO centrifugal filter unit (Cat. #UFC901024). The concentrated protein was applied to a GE Healthcare HiLoad 16/60 Superdex 75 or 200 prep grade column (Cat. #17-1068-01, Cat. #17-1069-01) equilibrated in 20 mM Tris-HCl pH 8.5, 250 mM NaCl, and 1 mM DTT. Fractions were run on a SDS-PAGE gel and the cleanest fractions were pooled. The protein was concentrated to approximately 6.5-10 mg/mL. Samples in the final buffer (20 mM Tris-HCl pH 8.5, 250 mM NaCl, 1 mM DTT; [or with ligand added eg. 2 mM ATP/5 mM MgCl2 or 0.05 mM compound of the invention]) are delivered fresh to crystallization and stored at 4° C. or flash frozen in liquid nitrogen (as 120 μL aliquots) and stored at −80° C.

JAK2 JH1JH2 V617F kinase = biological target: T2, JAK2 JH1JH2 V617F kinase (Homo sapiens, UniProt O60674, V617F); assay: JAK2 Luminescence-Based ATP Depletion Enzyme Assay (JAK2-V617F); format: biochemical; details: 10 μM ATP
T2 construct: JAK2 JH1JH2 V617F kinase; inferred from Ni-NTA capture and imidazole elution; made in house; host or cells: Sf9 insect cells
Experimental: as §1, §2, §3, §4, §5

T2 sequence (O60674 536-1132 V617F limits assumed): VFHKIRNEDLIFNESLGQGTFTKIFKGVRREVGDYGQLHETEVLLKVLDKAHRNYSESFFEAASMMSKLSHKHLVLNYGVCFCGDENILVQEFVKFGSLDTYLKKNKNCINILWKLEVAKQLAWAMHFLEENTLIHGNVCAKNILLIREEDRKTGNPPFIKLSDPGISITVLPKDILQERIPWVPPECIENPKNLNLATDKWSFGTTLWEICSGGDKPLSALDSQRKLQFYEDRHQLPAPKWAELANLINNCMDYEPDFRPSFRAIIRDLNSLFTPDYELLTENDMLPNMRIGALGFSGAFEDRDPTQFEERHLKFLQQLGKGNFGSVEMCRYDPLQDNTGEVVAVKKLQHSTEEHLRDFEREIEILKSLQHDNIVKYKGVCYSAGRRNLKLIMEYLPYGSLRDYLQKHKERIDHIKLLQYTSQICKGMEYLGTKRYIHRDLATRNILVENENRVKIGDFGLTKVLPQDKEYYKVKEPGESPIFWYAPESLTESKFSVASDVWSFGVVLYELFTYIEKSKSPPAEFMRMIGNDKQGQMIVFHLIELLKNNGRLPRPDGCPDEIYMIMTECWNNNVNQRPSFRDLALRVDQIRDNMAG
T1 sequence (O60674 849-1124 limits assumed): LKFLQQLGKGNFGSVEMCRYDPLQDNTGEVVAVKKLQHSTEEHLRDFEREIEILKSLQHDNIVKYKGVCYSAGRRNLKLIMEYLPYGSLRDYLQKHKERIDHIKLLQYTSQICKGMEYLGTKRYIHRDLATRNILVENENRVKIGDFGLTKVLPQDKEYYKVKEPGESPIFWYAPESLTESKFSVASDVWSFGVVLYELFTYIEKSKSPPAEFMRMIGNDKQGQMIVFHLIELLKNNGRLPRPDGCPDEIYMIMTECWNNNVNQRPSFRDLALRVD

SMILES	IC50 (JAK2 KD kinase) [nM]	IC50 (JAK2 JH1JH2 V617F kinase) [nM]
C[C@@H](NC(=O)c1ccc(-c2ccnc(Nc3cccc(CN4CCN(CCO)CC4)c3)n2)s1)c1ccccc1	< 100	–
C[C@@H](NC(=O)c1ccc(-c2ccnc(Nc3cccc(CN4CCC(O)CC4)c3)n2)s1)c1ccccc1	< 100	< 500
O=C(NCc1ccccc1)c1ccc(-c2ccnc(Nc3ccc(CCO)cc3)n2)s1	< 100	< 500
CN(C)C1CCN(c2cccc(Nc3nccc(-c4ccc(C(=O)NCc5ccco5)s4)n3)c2)C1 (stereo not drawn)	< 100	< 500
CN(Cc1ccccc1)C(=O)c1ccc(-c2ccnc(Nc3ccc(CCO)cc3)n2)s1	< 100	–
OC1CCN(Cc2cccc(Nc3nccc(-c4ccc(CNc5ccccc5Cl)s4)n3)c2)CC1	< 100	–

Other lines, results leading:

IC50 (JAK2 KD kinase) [nM]	IC50 (JAK2 JH1JH2 V617F kinase) [nM]	SMILES
< 100	< 500	CC(O)c1cccc(Nc2nccc(-c3ccc(S(=O)(=O)N(C)C)s3)n2)c1 (stereo not drawn)
< 100	–	CNC(=O)c1ccc(-c2ccc(-c3ccnc(Nc4cccc(C(C)O)c4)n3)s2)cc1 (stereo not drawn)
< 100	< 500	CCN(CCC#N)S(=O)(=O)c1ccc(-c2ccnc(Nc3cccc(C)c3)n2)s1
< 100	< 500	CCN(CCC#N)S(=O)(=O)c1ccc(-c2ccnc(Nc3cccc(C(C)O)c3)n2)s1 (stereo not drawn)
< 100	–	CC(O)c1cccc(Nc2nccc(-c3ccc(S(=O)(=O)Cc4ccccc4)s3)n2)c1 (stereo not drawn)
< 100	< 500	CC(O)c1cccc(Nc2nccc(-c3ccc(-c4cccc(CC#N)c4)s3)n2)c1 (stereo not drawn)
< 100	< 500	CCN(CCC#N)C(=O)c1ccc(-c2ccnc(Nc3cccc(C(C)O)c3)n2)s1 (stereo not drawn)
< 100	–	CC(O)c1cccc(Nc2nccc(-c3ccc(-c4ccncc4)s3)n2)c1 (stereo not drawn)
< 100	–	CCC(=O)Nc1ccc(-c2ccnc(Nc3cccc(C)c3)n2)s1
< 100	–	CC(O)c1cccc(Nc2nccc(-c3ccc(-c4cccnc4)s3)n2)c1 (stereo not drawn)
